In patent US9133148B2, “Carbamate compounds and of making and using same” (Abide Therapeutics, Inc., priority 2012, dated 2015):

Legend:
Type in all cases: biochemical
MAGL [1] = biological target: T1, MAGL (Mus musculus (Mouse), UniProt O35678); experiment: In vitro competitive activity-based protein profiling (FP-Rh), mouse MAGL; conditions: mouse brain membrane proteome, competitive ABPP
Experimental: (§1) In Vitro Competitive Activity-Based Protein Profiling.
(§2) Proteomes (mouse brain membrane fraction or cell lysates) ([…], 1.0 mg/mL total protein concentration) were preincubated with varying concentrations of inhibitors at 37° C. After 30 min, FP-Rh (1.0 μL, 50 μM in DMSO) was added and the mixture was incubated for another 30 min at 37° C. Reactions were quenched with SDS loading buffer (50 μL—4×) and run on SDS-PAGE.

FAAH [2] = biological target: T2, FAAH (Mus musculus (Mouse), UniProt O08914); experiment: In vitro competitive activity-based protein profiling (FP-Rh), mouse FAAH; conditions: mouse brain membrane proteome, competitive ABPP
T2 sequence (O08914 whole entry): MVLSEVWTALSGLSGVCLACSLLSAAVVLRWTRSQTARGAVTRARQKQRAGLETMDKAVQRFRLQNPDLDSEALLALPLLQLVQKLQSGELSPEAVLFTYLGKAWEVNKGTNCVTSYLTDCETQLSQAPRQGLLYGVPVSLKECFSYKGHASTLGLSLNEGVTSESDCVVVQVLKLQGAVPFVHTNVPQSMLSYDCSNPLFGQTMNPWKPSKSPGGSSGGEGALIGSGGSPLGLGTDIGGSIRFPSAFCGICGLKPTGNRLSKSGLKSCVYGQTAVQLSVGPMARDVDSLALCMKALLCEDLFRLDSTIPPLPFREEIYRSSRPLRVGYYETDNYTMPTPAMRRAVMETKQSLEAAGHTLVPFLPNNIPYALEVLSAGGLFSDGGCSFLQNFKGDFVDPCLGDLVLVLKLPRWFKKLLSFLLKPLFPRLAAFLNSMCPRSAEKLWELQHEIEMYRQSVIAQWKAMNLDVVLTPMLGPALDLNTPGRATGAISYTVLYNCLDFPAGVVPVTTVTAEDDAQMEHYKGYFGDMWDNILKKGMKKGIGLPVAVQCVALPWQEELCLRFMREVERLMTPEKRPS
Experimental: as §1, §2

ABHD6 [3] = biological target: T3, ABHD6 (Mus musculus (Mouse), UniProt Q8R2Y0); experiment: In vitro competitive activity-based protein profiling (FP-Rh), mouse ABHD6; conditions: mouse brain membrane proteome, competitive ABPP
T3 sequence (Q8R2Y0 whole entry): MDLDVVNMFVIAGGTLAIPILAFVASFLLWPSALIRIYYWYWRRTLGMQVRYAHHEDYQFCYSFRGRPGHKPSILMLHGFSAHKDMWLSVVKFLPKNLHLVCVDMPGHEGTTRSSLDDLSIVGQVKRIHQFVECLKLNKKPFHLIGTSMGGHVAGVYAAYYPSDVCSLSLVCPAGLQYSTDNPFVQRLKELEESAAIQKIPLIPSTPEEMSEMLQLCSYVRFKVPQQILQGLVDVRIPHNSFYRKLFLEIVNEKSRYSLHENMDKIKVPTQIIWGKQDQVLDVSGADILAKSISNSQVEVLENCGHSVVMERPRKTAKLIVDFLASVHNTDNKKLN
Experimental: as §1, §2

Human MAGL = Human MAGL (Homo sapiens (Human), UniProt Q99685); experiment: Competitive ABPP with recombinant human MAGL expressed in HEK293T cells; conditions: hMAGL in HEK293T cell lysates
Human MAGL, sequence (Q99685 whole entry): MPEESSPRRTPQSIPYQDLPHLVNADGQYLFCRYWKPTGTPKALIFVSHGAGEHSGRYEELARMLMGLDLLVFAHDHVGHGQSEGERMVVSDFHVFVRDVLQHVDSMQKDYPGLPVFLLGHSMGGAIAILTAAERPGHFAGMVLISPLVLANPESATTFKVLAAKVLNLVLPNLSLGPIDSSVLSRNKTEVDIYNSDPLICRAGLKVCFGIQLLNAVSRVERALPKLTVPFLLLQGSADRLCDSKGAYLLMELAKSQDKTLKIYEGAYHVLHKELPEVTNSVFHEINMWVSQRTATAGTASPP
Experimental: as §2
Recombinant Expression of Human MAGL in HEK293T Cells.
Cell lysates were diluted with mock proteomes for use in competitive ABPP experiments.

ABHD6 [4] = biological target: T3, ABHD6; experiment: Competitive ABPP, % inhibition at 1 uM, ABHD6
Experimental: as §1, §2

FAAH [5] = biological target: T2, FAAH; experiment: Competitive ABPP, % inhibition at 1 uM, FAAH
Experimental: as §1
as §2, with “SDS-PAGE. Following gel imaging, serine hydrolase activity was determined by measuring fluorescent intensity of gel bands corresponding to MAGL, ABHD6 and FAAH using ImageJ 1.43u software.” for “SDS-PAGE.”

MAGL [6] = biological target: T1, MAGL; experiment: Competitive ABPP, % inhibition at 1 uM, MAGL
Experimental: as §1, §2

T1 sequence (O35678 whole entry): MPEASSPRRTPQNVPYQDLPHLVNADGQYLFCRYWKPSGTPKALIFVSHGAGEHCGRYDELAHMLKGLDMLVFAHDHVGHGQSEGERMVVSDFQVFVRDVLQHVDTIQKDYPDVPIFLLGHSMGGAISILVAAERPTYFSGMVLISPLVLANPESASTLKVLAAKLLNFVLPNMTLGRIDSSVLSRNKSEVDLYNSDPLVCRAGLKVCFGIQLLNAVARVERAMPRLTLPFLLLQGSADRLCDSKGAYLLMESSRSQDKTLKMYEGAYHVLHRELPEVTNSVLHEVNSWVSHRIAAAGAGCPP

Row | Structure (SMILES) | IC50 (MAGL [1]) [nM] | IC50 (FAAH [2]) [nM] | IC50 (ABHD6 [3]) [nM] | IC50 (Human MAGL) [nM] | inhibition at 1 µM (ABHD6 [4]) [%] | inhibition at 1 µM (FAAH [5]) [%] | inhibition at 1 µM (MAGL [6]) [%]
1 | O=C(OC(C(F)(F)F)C(F)(F)F)N1CCC(=C(c2ccc3c(c2)OCO3)c2ccc3c(c2)OCO3)CC1 [Example 1d, 1,1,1,3,3,3-hexafluoropropan-2-yl 4-(bis(benzo[d][1,3]dioxol-5-yl)methylene)piperidine-1-carboxylate] | < 100 | > 10000 | 100 to 1000 | < 100 | – | – | –
2 | O=C(OC(C(F)(F)F)C(F)(F)F)N1CCN(C(c2ccc3c(c2)CCO3)c2ccc3c(c2)CCO3)CC1 [Example 2e, 1,1,1,3,3,3-hexafluoropropan-2-yl 4-(bis(2,3-dihydrobenzofuran-5-yl)methyl)piperazine-1-carboxylate] | < 100 | > 10000 | 100 to 1000 | < 100 | – | – | –
3 | O=C(OC(C(F)(F)F)C(F)(F)F)N1CCN(C(c2ccc3c(c2)OC(F)(F)O3)c2ccc3c(c2)OC(F)(F)O3)CC1 [Example 2f, 1,1,1,3,3,3-hexafluoropropan-2-yl 4-(bis(2,2-difluorobenzo[d][1,3]-dioxol-5-yl)methyl)piperazine-1-carboxylate] | < 100 | > 10000 | > 1000 | < 100 | – | – | –
4 | O=C(OC(C(F)(F)F)C(F)(F)F)N1CCN(Cc2ccc(-c3ccccc3)cc2)CC1 [Example 3b, 1,1,1,3,3,3-hexafluoropropan-2-yl 4-([1,1′-biphenyl]-4-ylmethyl)-piperazine-1-carboxylate] | 100 to 1000 | > 10000 | > 1000 | < 100 | – | – | –
5 | O=C(OC(C(F)(F)F)C(F)(F)F)N1CCN(C(=O)c2ccc(-c3ccccc3)cc2)CC1 [Example 3c, 1,1,1,3,3,3-hexafluoropropan-2-yl 4-([1,1′-biphenyl]-4-carbonyl)-piperazine-1-carboxylate] | > 1000 | > 10000 | > 1000 | > 1000 | – | – | –
6 | COc1ccc(N2CCN(C(=O)OC(C(F)(F)F)C(F)(F)F)CC2)cc1 [Example 3e, 1,1,1,3,3,3-hexafluoropropan-2-yl 4-(4-methoxyphenyl)piperazine-1-carboxylate] | > 1000 | > 10000 | 100 to 1000 | 100 to 1000 | – | – | –
7 | Cc1cc(N2CCN(C(=O)OC(C(F)(F)F)C(F)(F)F)CC2)c2ccccc2n1 [Example 3h, 1,1,1,3,3,3-hexafluoropropan-2-yl 4-(2-methylquinolin-4-yl)piperazine-1-carboxylate] | > 1000 | > 10000 | > 1000 | < 100 | – | – | –
8 | CN(Cc1ccc2c(c1)OCO2)C(=O)OC(C(F)(F)F)C(F)(F)F [Example 3i, 1,1,1,3,3,3-hexafluoropropan-2-yl(benzo[d][1,3]dioxol-5-ylmethyl)-(methyl)carbamate] | 100 to 1000 | > 10000 | > 1000 | 100 to 1000 | – | – | –
9 | Cc1nc(-c2cccc(CN(C)C(=O)OC(C(F)(F)F)C(F)(F)F)c2)no1 [Example 3j, 1,1,1,3,3,3-hexafluoropropan-2-yl methyl(3-(5-methyl-1,2,4-oxadiazol-3-yl)benzyl)carbamate] | 100 to 1000 | > 10000 | 100 to 1000 | < 100 | – | – | –

More lines, now with the values ahead:

Row | IC50 (MAGL [1]) [nM] | IC50 (FAAH [2]) [nM] | IC50 (ABHD6 [3]) [nM] | IC50 (Human MAGL) [nM] | inhibition at 1 µM (ABHD6 [4]) [%] | inhibition at 1 µM (FAAH [5]) [%] | inhibition at 1 µM (MAGL [6]) [%] | Structure (SMILES)
10 | 100 to 1000 | > 10000 | 100 to 1000 | 100 to 1000 | – | – | – | O=C(OC(C(F)(F)F)C(F)(F)F)N1CCN(S(=O)(=O)c2ccccc2)CC1 [Example 4a, 1,1,1,3,3,3-hexafluoropropan-2-yl 4-(phenylsulfonyl)piperazine-1-carboxylate]
11 | < 100 | > 10000 | 100 to 1000 | < 100 | – | – | – | Cc1ccc(S(=O)(=O)N2CCN(C(=O)OC(C(F)(F)F)C(F)(F)F)CC2)cc1 [Example 4b, 1,1,1,3,3,3-hexafluoropropan-2-yl 4-tosylpiperazine-1-carboxylate]
12 | 100 to 1000 | > 10000 | > 1000 | 100 to 1000 | – | – | – | N#Cc1ccc(S(=O)(=O)N2CCN(C(=O)OC(C(F)(F)F)C(F)(F)F)CC2)cc1 [Example 4d, 1,1,1,3,3,3-hexafluoropropan-2-yl 4-((4-cyanophenyl)sulfonyl)-piperazine-1-carboxylate]
13 | – | – | – | – | 25 to 75 | < 25 | 25 to 75 | Cc1cc(-c2ccc(CN3CCN(C(=O)OC(C(F)(F)F)C(F)(F)F)CC3)c(C)c2)ccn1 [Example 11i, 1,1,1,3,3,3-hexafluoropropan-2-yl 4-[[2-methyl-4-(2-methylpyridin-4-yl)phenyl]methyl]piperazine-1-carboxylate]
14 | – | – | – | – | 25 to 75 | < 25 | > 75 | O=C(OC(C(F)(F)F)C(F)(F)F)N1CCN(Cc2ccc(-c3cccc(F)c3)cn2)CC1 [Example 11k, 1,1,1,3,3,3-hexafluoropropan-2-yl 4-[[5-(3-fluorophenyl)pyridin-2-yl]methyl]piperazine-1-carboxylate]
15 | – | – | – | – | > 75 | < 25 | > 75 | Cc1cc(-c2cccnc2)ccc1CN1CCN(C(=O)OC(C(F)(F)F)C(F)(F)F)CC1 [Example 11l, 1,1,1,3,3,3-hexafluoropropan-2-yl 4-[[2-methyl-4-(pyridin-3-yl)phenyl]methyl]piperazine-1-carboxylate]
16 | – | – | – | – | 25 to 75 | < 25 | 25 to 75 | Cc1cc(-c2ccc(CN3CCN(C(=O)OC(C(F)(F)F)C(F)(F)F)CC3)c(C)c2)cc(C)n1 [Example 11m, 1,1,1,3,3,3-hexafluoropropan-2-yl 4-[[4-(2,6-dimethylpyridin-4-yl)-2-methylphenyl]methyl]piperazine-1-carboxylate]
17 | – | – | – | – | > 75 | < 25 | > 75 | Cc1cc(-c2ccncc2C)ccc1CN1CCN(C(=O)OC(C(F)(F)F)C(F)(F)F)CC1 [Example 11n, 1,1,1,3,3,3-hexafluoropropan-2-yl 4-[[2-methyl-4-(3-methylpyridin-4-yl)phenyl]methyl]piperazine-1-carboxylate]
18 | – | – | – | – | 25 to 75 | < 25 | > 75 | O=C(OC(C(F)(F)F)C(F)(F)F)N1CCN(Cc2ccc(-c3cccc(F)c3)cc2F)CC1 [Example 11o, 1,1,1,3,3,3-hexafluoropropan-2-yl 4-[[2-fluoro-4-(3-fluorophenyl)phenyl]methyl]piperazine-1-carboxylate]
19 | – | – | – | – | < 25 | < 25 | 25 to 75 | Cc1cccc(-c2ccc(CN3CCN(C(=O)OC(C(F)(F)F)C(F)(F)F)CC3)c(Oc3ccccc3)c2)c1 [Example 11r, 1,1,1,3,3,3-hexafluoropropan-2-yl 4-[[4-(3-methylphenyl)-2-phenoxyphenyl]methyl]piperazine-1-carboxylate]
20 | – | – | – | – | 25 to 75 | < 25 | 25 to 75 | Cc1cc(-c2cccnc2C)ccc1CN1CCN(C(=O)OC(C(F)(F)F)C(F)(F)F)CC1 [Example 11s, 1,1,1,3,3,3-hexafluoropropan-2-yl 4-[[2-methyl-4-(2-methylpyridin-3-yl)phenyl]methyl]piperazine-1-carboxylate]
21 | – | – | – | – | 25 to 75 | < 25 | > 75 | Cc1ncccc1-c1ccc(CN2CCN(C(=O)OC(C(F)(F)F)C(F)(F)F)CC2)c(F)c1 [Example 11t, 1,1,1,3,3,3-hexafluoropropan-2-yl 4-[[2-fluoro-4-(2-methylpyridin-3-yl)phenyl]methyl]piperazine-1-carboxylate]
22 | – | – | – | – | 25 to 75 | < 25 | 25 to 75 | Cc1ccccc1-c1ccc(CN2CCN(C(=O)OC(C(F)(F)F)C(F)(F)F)CC2)nc1C [Example 11u, 1,1,1,3,3,3-hexafluoropropan-2-yl 4-[[6-methyl-5-(2-methylphenyl)pyridin-2-yl]methyl]piperazine-1-carboxylate]
23 | – | – | – | – | > 75 | < 25 | > 75 | Cc1nc(CN2CCN(C(=O)OC(C(F)(F)F)C(F)(F)F)CC2)ccc1-c1ccccc1F [Example 11v, 1,1,1,3,3,3-hexafluoropropan-2-yl 4-[[5-(2-fluorophenyl)-6-methyl-pyridin-2-yl]methyl]piperazine-1-carboxylate]
24 | – | – | – | – | 25 to 75 | < 25 | > 75 | Cc1nc(CN2CCN(C(=O)OC(C(F)(F)F)C(F)(F)F)CC2)ccc1-c1cccc(F)c1 [Example 11w, 1,1,1,3,3,3-hexafluoropropan-2-yl 4-[[5-(3-fluorophenyl)-6-methylpyridin-2-yl]methyl]piperazine-1-carboxylate]
25 | – | – | – | – | 25 to 75 | < 25 | 25 to 75 | Cc1cccc(-c2ccc(CN3CCN(C(=O)OC(C(F)(F)F)C(F)(F)F)CC3)c(C)c2)n1 [Example 11z, 1,1,1,3,3,3-hexafluoropropan-2-yl 4-[[2-methyl-4-(6-methylpyridin-2-yl)phenyl]methyl]piperazine-1-carboxylate]
